Measured values: PubChem BioAssay (NCI)
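Tested at 5 concentrations; 48 h exposure; 96-well plates; endpoints linearly interpolated, else capped at highest concentration. The concentration for 50% growth inhibition is given as GI50. TGI denotes the concentration required for complete inhibition of growth.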

What was measured:
Assay in all cases: NCI tumour cell line growth inhibition, 48 h
[1] = system: A498 renal
[2] = system: NCI-H23 lung
[3] = system: NCI-H460 lung
[4] = system: OVCAR-4 ovarian
[5] = system: RXF 393 renal
[6] = system: SF-268 CNS
[7] = system: SK-MEL-2 melanoma
[8] = system: SK-MEL-28 melanoma
[9] = system: SNB-75 CNS
[10] = system: UACC-257 melanoma

| Compound | TGI [1] [µM] | TGI [2] [µM] | TGI [3] [µM] | TGI [4] [µM] | TGI [5] [µM] | TGI [6] [µM] | TGI [7] [µM] | TGI [8] [µM] | TGI [9] [µM] | TGI [10] [µM] | GI50 [1] [µM] | GI50 [2] [µM] | GI50 [3] [µM] | GI50 [4] [µM] | GI50 [6] [µM] | GI50 [7] [µM] | GI50 [8] [µM] | GI50 [9] [µM] | GI50 [10] [µM] | GI50 [5] [µM] |
| --- | --- | --- | --- | --- | --- | --- | --- | --- | --- | --- | --- | --- | --- | --- | --- | --- | --- | --- | --- | --- |
| Cc1nc2ccccc2c(=O)n1CC(=O)O | > 100 | > 100 | > 100 | > 100 | > 100 | > 100 | > 100 | > 100 | > 100 | > 100 |  |  |  |  |  |  |  |  |  |  |
| CCOc1ccc2c(ccc(/C=C\c3cc(C)c4cccnc4c3O)[n+]2C)c1 | 9.1 | 43.5 | 10.2 | 18.6 | 18.9 | 28.3 | 3.24 | 14.6 | 15 | 6.9 |  |  |  |  |  |  |  |  |  |  |
| CC(=O)O[C@H]1CC[C@@]2(C)C(=CC[C@@H]3[C@@H]2CC[C@]2(C)C(=N/O)/C(=C/c4ccc([N+](=O)[O-])cc4)C[C@@H]32)C1 | 25.5 | 13.2 | > 100 | > 100 | > 100 | > 100 | 17.5 | > 100 | 40.5 | 1.55 |  |  |  |  |  |  |  |  |  |  |
| CC(C)=CC(=O)OC1C2C(C)C(=O)OC2C(O)C(C)C2C=CC(=O)C21C (centres undefined) | 3.29 | 7.59 | 6.33 | 6.42 | 3.68 | 8.42 | 11.5 | 3.82 | 6.67 | 8.4 |  |  |  |  |  |  |  |  |  |  |
| C[C@]12C=CC(=O)C=C1CC[C@@H]1[C@@H]2C(=O)C[C@@]2(C)[C@H]1CC[C@]2(O)C(=O)CO | > 100 | > 100 | > 100 | > 100 | > 100 | > 100 | > 100 | > 100 | > 100 | > 100 |  |  |  |  |  |  |  |  |  |  |
| COc1cc2c3c(n(CCN(C)C)c(=O)c2cc1OC)-c1cc2c(cc1C3=O)OCO2 | 87.1 | > 100 | > 100 | > 100 | > 57.9 | > 100 | > 100 | > 100 | > 100 | > 100 | 15 | 0.137 | 0.157 | > 38.2 | 0.677 | > 96.1 | > 28.4 | 8.22 | 12.6 |  |
| Cn1cc(C[C@@H](N)C(=O)O)c2ccccc21 | > 100 | > 100 | > 100 | > 100 | > 100 | > 100 | > 100 | > 100 | > 100 | > 100 |  |  |  |  |  |  |  |  |  |  |
| O=C(O)c1cc(=O)[nH]c(=S)[nH]1 | > 100 | > 100 | > 100 | > 100 | > 100 | > 100 | > 100 | > 100 | > 100 | > 100 |  |  |  |  |  |  |  |  |  |  |
| CCN(CC)CCCC(Nc1c2ccc(Cl)cc2nc2ccc(OC)cc12)c1ccc(F)cc1 (centres undefined) | 21.4 | 7.9 | 3.84 | 4.71 | 3.13 | 5.33 | 4.35 | 3.2 | 2.66 | 4.1 | 7.37 | 2.56 | 1.91 | 1.71 | 2.28 | 2.1 | 1.71 | 1.21 | 2.02 | 1.51 |
| CN1C2C=C(c3ccccc3)CC1CC2 (centres undefined) | > 100 | > 100 | > 100 |  | > 100 | > 100 | > 100 | > 100 | > 100 | > 100 |  |  |  |  |  |  |  |  |  |  |
| COc1c2c(cc3c(CCc4ccccc4)cc(=O)oc13)CCC(C)(C)O2 |  | > 100 | > 100 |  | > 100 | > 100 | > 100 | > 100 | > 100 | > 100 |  |  |  |  |  |  |  |  |  |  |
| CCCCN(CCCC)CCCCNc1c(C)cnc2cc(Cl)ccc12 | 86.5 | > 100 | > 100 | > 100 | 31 | 85.3 | 39.9 | 33.2 |  | 32.5 |  |  |  |  |  |  |  |  |  |  |
| Cc1ccc(/C(=C/C=C(C#N)C#N)Sc2cc(Cl)ccc2Cl)cc1 |  | 16.1 | > 100 | 37.7 | 27.8 | 43.9 | > 100 | 28.9 | 38.7 | 7.8 |  |  |  |  |  |  |  |  |  |  |
| CC(/C=C/c1ccc([N+](=O)[O-])o1)=N/N1CC(CN2CCOCC2)OC1=O (centres undefined) | 83.9 | 49.8 | 46.9 | 29.7 |  | 51.9 | 34.6 | 38.2 |  | 36.5 |  |  |  |  |  |  |  |  |  |  |
| c1ccc2c(c1)nc1n2CSC1 | > 100 | > 100 | > 100 |  |  | > 100 | > 100 | > 100 | > 100 |  |  |  |  |  |  |  |  |  |  |  |
| CC(=O)[O-].CC(=O)[O-].[NH2-].[Pt+2].c1ccncc1 | > 100 | > 100 | > 100 | > 100 | 64.6 | > 100 | > 100 | > 100 | > 100 |  |  |  |  |  |  |  |  |  |  |  |
| CN1CCN(Cc2ccc(NC(=O)c3ccc(C#N)c(C#Cc4cnc(N)c5ncccc45)c3)cc2C(F)(F)F)CC1 | 10.6 |  |  |  |  |  | > 100 |  |  |  | 3.25 |  |  |  |  | 2.45 |  |  |  |  |
| CCOP(=O)(OCC)C(Cc1ccc(OC)c(OC)c1)N=C(c1ccccc1)c1ccccc1 (centres undefined) | > 100 | > 100 | > 100 | > 100 | > 100 | > 100 |  | > 100 | 81.1 | > 100 |  |  |  |  |  |  |  |  |  |  |
| O=C1CN2C(Cl)(Cl)C2(c2ccccc2)c2cc(Cl)ccc2N1CC(F)(F)F (centres undefined) |  | 70.1 | 35.9 | 43.7 | 63.6 | > 100 | 54.9 | 61 | 51.2 | 51.9 |  |  |  |  |  |  |  |  |  |  |
| [C-]#[O+].[Cl][Sn]([Cl])[Cl].[Cl][Sn]([Cl])[Cl].[Pt].c1ccncc1 | > 100 | > 100 | > 100 | > 100 | > 100 | > 100 | > 100 | > 100 | > 100 | > 100 |  |  |  |  |  |  |  |  |  |  |
| Cc1cc2c(cc1C)[n+](=O)c(C(=O)N1CCN(c3ccc([N+](=O)[O-])cc3)CC1)c(C)n2[O-] | > 100 | > 100 | > 100 | > 100 | 41.3 | 57.1 | > 100 | > 100 |  | > 100 |  |  |  |  |  |  |  |  |  |  |
| CC1=C[C@]2(CC(C)C3C(CC4(C)C5CCC6C(C)(C)C(=O)CC[C@@]67C[C@@]57CC[C@]34C)O2)OC1=O (some centres undefined) | > 100 | > 100 | > 100 | 57.5 | 21.8 | > 100 | > 100 | > 100 | 42.1 | > 100 |  |  |  |  |  |  |  |  |  |  |
| O=C(Nc1ccc(Cl)cc1)/C(Cc1cccc[n+]1[O-])=N\Nc1ccc([N+](=O)[O-])cc1[N+](=O)[O-] | > 100 | > 100 | > 100 | > 100 | > 100 | > 100 | > 100 | > 100 | > 100 | > 100 |  |  |  |  |  |  |  |  |  |  |
| COc1cc(C(N)=O)cc(NC(=O)/C=C/c2ccccc2)c1OC | > 100 | > 100 | > 100 | > 100 | > 100 | > 100 | > 100 | > 100 | 93.1 | > 100 |  |  |  |  |  |  |  |  |  |  |
| Cc1ccc(S(=O)(=O)Oc2cc(S(=O)(=O)O)cc3cc(S(=O)(=O)O)cc(N)c23)cc1 | > 100 | > 100 | > 100 | > 100 | > 100 | > 100 | > 100 | > 100 | > 100 | > 100 |  |  |  |  |  |  |  |  |  |  |
| CC1(C)CCc2cc3c(-c4ccccc4)cc(=O)oc3cc2O1 | > 100 | > 100 | > 100 |  |  | > 100 | > 100 | > 100 | 71.5 |  |  |  |  |  |  |  |  |  |  |  |
| Cc1cccc2c(N)c3cccc(C(=O)NCCN(C)C)c3nc12 | 0.516 | 1.16 | 0.0262 | 18 | 0.479 | 2.41 | 0.463 | 0.482 | 0.615 | 0.658 |  |  |  |  |  |  |  |  |  |  |
| O=C1Nc2ccccc2Nc2nc3cccccc-3c21 |  | > 100 | > 100 | > 100 | > 100 | > 100 | > 100 | > 100 | > 100 |  |  |  |  |  |  |  |  |  |  |  |
| CO/N=C1/c2sccc2[C@H](NC(=O)C(F)(F)F)[C@@H]1O | > 100 | > 100 | > 100 | > 100 | > 100 | > 100 | > 100 | > 100 | > 100 | > 100 |  |  |  |  |  |  |  |  |  |  |
